Measurements from patent US20230085307A1, “PYRIDAZINONE COMPOUND AND HERBICIDE” (NISSAN CHEMICAL CORPORATION, priority 2019, published 2023).

Columns and labels:
velvetleaf [1] = assay: Test Example 5: herbicidal effect by foliage application, plastic box (Table 20, symbol M); type: in vivo, velvetleaf (Abutilon theophrasti); conditions: foliage application, 320 g/ha
In short: (§1)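 Post-emergence foliar test in sterilized diluvial soil. Compound applied as water-diluted emulsion at a predetermined rate to 14-day-old plants; evaluation at three weeks.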

rice flat sedge = assay: Test Example 3: herbicidal effect by foliage application, Wagner pot (Table 18, symbol E); type: in vivo, rice flat sedge (Cyperus iria); conditions: 320 g/ha
In short: (§2)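 Plants were sown in alluvial soil held under 0.1–0.5 cm standing water and grown 14 days in a greenhouse at 25–30 °C. An emulsifiable formulation, water-diluted to the set dose, was then sprayed onto the foliage, and effects were scored three weeks later using previously defined criteria.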

Italian ryegrass [2] = assay: Test Example 5: herbicidal effect by foliage application, plastic box (Table 20, symbol K); type: in vivo, Italian ryegrass (Lolium multiflorum); conditions: foliage application, 320 g/ha
In short: as §1

barnyard grass [3] = assay: Test Example 3: herbicidal effect by foliage application, Wagner pot (Table 18, symbol H); type: in vivo, barnyard grass (Echinochloa crus-galli); conditions: 320 g/ha
In short: as §2

chickweed [4] = assay: Test Example 4: herbicidal effect by soil treatment (Table 19, symbol P); type: in vivo, common chickweed (Stellaria media)
In short: (§3)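 Scoring uses the grading scale of an earlier test, three weeks post-application. Treatment consists of spraying a diluted emulsion formulation across the surface of sterilized diluvial soil in which seeds are buried near 1.5 cm deep; boxes are kept in a greenhouse between 25° C. and 30° C.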

blackgrass [5] = assay: Test Example 4: herbicidal effect by soil treatment (Table 19, symbol J); type: in vivo, blackgrass (Alopecurus myosuroides)
In short: as §3

blackgrass [6] = assay: Test Example 5: herbicidal effect by foliage application, plastic box (Table 20, symbol J); type: in vivo, blackgrass (Alopecurus myosuroides); conditions: foliage application, 320 g/ha
In short: as §1

wild oat [7] = assay: Test Example 5: herbicidal effect by foliage application, plastic box (Table 20, symbol I); type: in vivo, wild oat (Avena fatua); conditions: foliage application, 320 g/ha
In short: as §1

lambsquarters [8] = assay: Test Example 5: herbicidal effect by foliage application, plastic box (Table 20, symbol O); type: in vivo, lambsquarters (Chenopodium album); conditions: foliage application, 320 g/ha
In short: as §1

green foxtail [9] = assay: Test Example 5: herbicidal effect by foliage application, plastic box (Table 20, symbol G); type: in vivo, green foxtail (Setaria viridis); conditions: foliage application, 320 g/ha
In short: as §1

barnyard grass [10] = assay: Test Example 5: herbicidal effect by foliage application, plastic box (Table 20, symbol H); type: in vivo, barnyard grass (Echinochloa crus-galli); conditions: foliage application, 320 g/ha
In short: as §1

windgrass [11] = assay: Test Example 5: herbicidal effect by foliage application, plastic box (Table 20, symbol L); type: in vivo, windgrass (Apera spica-venti); conditions: foliage application, 320 g/ha
In short: as §1

persian speedwell [12] = assay: Test Example 4: herbicidal effect by soil treatment (Table 19, symbol R); type: in vivo, Persian speedwell (Veronica persica)
In short: as §3

chickweed [13] = assay: Test Example 5: herbicidal effect by foliage application, plastic box (Table 20, symbol P); type: in vivo, common chickweed (Stellaria media); conditions: foliage application, 320 g/ha
In short: as §1

wild oat [14] = assay: Test Example 4: herbicidal effect by soil treatment (Table 19, symbol I); type: in vivo, wild oat (Avena fatua)
In short: as §3

redroot pigweed [15] = assay: Test Example 5: herbicidal effect by foliage application, plastic box (Table 20, symbol N); type: in vivo, redroot pigweed (Amaranthus retroflexus); conditions: foliage application, 320 g/ha
In short: as §1

Italian ryegrass [16] = assay: Test Example 4: herbicidal effect by soil treatment (Table 19, symbol K); type: in vivo, Italian ryegrass (Lolium multiflorum)
In short: as §3

windgrass [17] = assay: Test Example 4: herbicidal effect by soil treatment (Table 19, symbol L); type: in vivo, windgrass (Apera spica-venti)
In short: as §3

oval-leafed pondweed = assay: Test Example 2: herbicidal activity, application during weed generation under submerged conditions (Table 17, symbol C); type: in vivo, oval-leafed pondweed (Monochoria vaginalis); conditions: AAH 320 g/ha; application during weed generation, submerged conditions
In short: (§4)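 3-wk visual-criteria score after one water-surface dose. Emulsion formulation, water-diluted to set rate; applied at 1–2 leaf stage; alluvial soil, 4 cm standing water; seeds co-sown; greenhouse 25–30° C.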

southern crabgrass [18] = assay: Test Example 5: herbicidal effect by foliage application, plastic box (Table 20, symbol F); type: in vivo, southern crabgrass (Digitaria ciliaris); conditions: foliage application, 320 g/ha
In short: as §1

persian speedwell [19] = assay: Test Example 5: herbicidal effect by foliage application, plastic box (Table 20, symbol R); type: in vivo, Persian speedwell (Veronica persica); conditions: foliage application, 320 g/ha
In short: as §1

Chinese sprangletop = assay: Test Example 3: herbicidal effect by foliage application, Wagner pot (Table 18, symbol D); type: in vivo, chinese sprangletop (Leptochloa chinensis); conditions: 320 g/ha
In short: as §2

Japanese bulrush = assay: Test Example 2: herbicidal activity, application during weed generation under submerged conditions (Table 17, symbol B); type: in vivo, Japanese bulrush (Schoenoplectus juncoides); conditions: AAH 320 g/ha; application during weed generation, submerged conditions
In short: as §4

late watergrass = assay: Test Example 2: herbicidal activity, application during weed generation under submerged conditions (Table 17, symbol A); type: in vivo, late watergrass (Echinochloa oryzicola); conditions: AAH 320 g/ha; application during weed generation, submerged conditions
In short: as §4

green foxtail [20] = assay: Test Example 4: herbicidal effect by soil treatment (Table 19, symbol G); type: in vivo, green foxtail (Setaria viridis); conditions: 320 g/ha
In short: as §3

barnyard grass [21] = assay: Test Example 4: herbicidal effect by soil treatment (Table 19, symbol H); type: in vivo, barnyard grass (Echinochloa crus-galli); conditions: 320 g/ha
In short: as §3

southern crabgrass [22] = assay: Test Example 4: herbicidal effect by soil treatment (Table 19, symbol F); type: in vivo, southern crabgrass (Digitaria ciliaris); conditions: 320 g/ha
In short: as §3

velvetleaf [23] = assay: Test Example 4: herbicidal effect by soil treatment (Table 19, symbol M); type: in vivo, velvetleaf (Abutilon theophrasti); conditions: 320 g/ha
In short: as §3

redroot pigweed [24] = assay: Test Example 4: herbicidal effect by soil treatment (Table 19, symbol N); type: in vivo, redroot pigweed (Amaranthus retroflexus); conditions: 320 g/ha
In short: as §3

lambsquarters [25] = assay: Test Example 4: herbicidal effect by soil treatment (Table 19, symbol O); type: in vivo, lambsquarters (Chenopodium album); conditions: 320 g/ha
In short: as §3

[26] = amount of applied herbicide 320 g/ha
[27] = evaluated three weeks after application

CCCC(=O)Oc1c(C)nn(C)c(=O)c1-c1c(-c2ccc(OC(F)(F)F)cc2)sc2ccccc12 [1-032]
herbicidal effect grade, M: velvetleaf (velvetleaf [1]; three weeks after application): 5 (Herbicidal rate of 90% or more (almost completely withered)) | herbicidal effect on E (rice flat sedge), rating 0-5 (rice flat sedge): 5 (Herbicidal rate of 90% or more (almost completely withered)) | herbicidal effect grade, K: Italian ryegrass (Italian ryegrass [2]; three weeks after application): 3 (Herbicidal rate of 40% or more and less than 70%) | herbicidal effect on H (barnyard grass), rating 0-5 (barnyard grass [3]): 4 (Herbicidal rate of 70% or more and less than 90%) | herbicidal effect rating, P: chickweed (chickweed [4]; [26]): 3 (Herbicidal rate of 40% or more and less than 70%) | herbicidal effect rating, J: blackgrass (blackgrass [5]; [26]): 0 (Herbicidal rate of 5% or less (almost no effect)) | herbicidal effect grade, J: blackgrass (blackgrass [6]; three weeks after application): 2 (Herbicidal rate of 20% or more and less than 40%) | herbicidal effect grade, I: wild oat (wild oat [7]; three weeks after application): 0 (Herbicidal rate of 5% or less (almost no effect)) | herbicidal effect grade, O: lambsquarters (lambsquarters [8]; three weeks after application): 5 (Herbicidal rate of 90% or more (almost completely withered)) | herbicidal effect grade, G: green foxtail (green foxtail [9]; three weeks after application): 4 (Herbicidal rate of 70% or more and less than 90%) | herbicidal effect grade, H: barnyard grass (barnyard grass [10]; three weeks after application): 3 (Herbicidal rate of 40% or more and less than 70%) | herbicidal effect grade, L: windgrass (windgrass [11]; three weeks after application): 0 (Herbicidal rate of 5% or less (almost no effect)) | herbicidal effect rating, R: persian speedwell (persian speedwell [12]; [26]): 5 (Herbicidal rate of 90% or more (almost completely withered)) | herbicidal effect grade, P: chickweed (chickweed [13]; three weeks after application): 5 (Herbicidal rate of 90% or more (almost completely withered)) | herbicidal effect rating, I: wild oat (wild oat [14]; [26]): 0 (Herbicidal rate of 5% or less (almost no effect)) | herbicidal effect grade, N: redroot pigweed (redroot pigweed [15]; three weeks after application): 4 (Herbicidal rate of 70% or more and less than 90%) | herbicidal effect rating, K: Italian ryegrass (Italian ryegrass [16]; [26]): 4 (Herbicidal rate of 70% or more and less than 90%) | herbicidal effect rating, L: windgrass (windgrass [17]; [26]): 0 (Herbicidal rate of 5% or less (almost no effect)) | herbicidal effect rating, C: oval-leafed pondweed (oval-leafed pondweed): 3 (Herbicidal rate of 40% or more and less than 70%) | herbicidal effect grade, F: southern crabgrass (southern crabgrass [18]; three weeks after application): 0 (Herbicidal rate of 5% or less (almost no effect)) | herbicidal effect grade, R: persian speedwell (persian speedwell [19]; three weeks after application): 5 (Herbicidal rate of 90% or more (almost completely withered)) | herbicidal effect on D (Chinese sprangletop), rating 0-5 (Chinese sprangletop): 0 (Herbicidal rate of 5% or less (almost no effect)) | herbicidal effect rating, B: Japanese bulrush (Japanese bulrush): 1 (Herbicidal rate of 5% or more and less than 20%) | herbicidal effect rating, A: late watergrass (late watergrass): 0 (Herbicidal rate of 5% or less (almost no effect))

COCCOCOc1c(C)nn(C)c(=O)c1-c1c(-c2ccc(OCC#N)cc2)sc2ccc(F)cc12 [2-067]
herbicidal effect on M: velvetleaf (velvetleaf [1]; [27]): 2 (Herbicidal rate of 20% or more and less than 40%) | herbicidal effect on E (rice flat sedge), rating 0-5 (rice flat sedge): 3 (Herbicidal rate of 40% or more and less than 70%) | herbicidal effect on K: Italian ryegrass (Italian ryegrass [2]; [27]): 0 (Herbicidal rate of 5% or less (almost no effect)) | herbicidal effect on H (barnyard grass), rating 0-5 (barnyard grass [3]): 4 (Herbicidal rate of 70% or more and less than 90%) | herbicidal effect rating, P: chickweed (chickweed [4]; 320 g/ha): 0 (Herbicidal rate of 5% or less (almost no effect)) | herbicidal effect rating, J: blackgrass (blackgrass [5]; 320 g/ha): 0 (Herbicidal rate of 5% or less (almost no effect)) | herbicidal effect rating, G: green foxtail (green foxtail [20]): 0 (Herbicidal rate of 5% or less (almost no effect)) | herbicidal effect rating, H: barnyard grass (barnyard grass [21]): 0 (Herbicidal rate of 5% or less (almost no effect)) | herbicidal effect on J: blackgrass (blackgrass [6]; [27]): 0 (Herbicidal rate of 5% or less (almost no effect)) | herbicidal effect on I: wild oat (wild oat [7]; [27]): 0 (Herbicidal rate of 5% or less (almost no effect)) | herbicidal effect on O: lambsquarters (lambsquarters [8]; [27]): 4 (Herbicidal rate of 70% or more and less than 90%) | herbicidal effect rating, F: southern crabgrass (southern crabgrass [22]): 0 (Herbicidal rate of 5% or less (almost no effect)) | herbicidal effect on G: green foxtail (green foxtail [9]; [27]): 1 (Herbicidal rate of 5% or more and less than 20%) | herbicidal effect on H: barnyard grass (barnyard grass [10]; [27]): 1 (Herbicidal rate of 5% or more and less than 20%) | herbicidal effect on L: windgrass (windgrass [11]; [27]): 0 (Herbicidal rate of 5% or less (almost no effect)) | herbicidal effect rating, R: persian speedwell (persian speedwell [12]; 320 g/ha): 3 (Herbicidal rate of 40% or more and less than 70%) | herbicidal effect on P: chickweed (chickweed [13]; [27]): 4 (Herbicidal rate of 70% or more and less than 90%) | herbicidal effect rating, M: velvetleaf (velvetleaf [23]): 0 (Herbicidal rate of 5% or less (almost no effect)) | herbicidal effect rating, I: wild oat (wild oat [14]; 320 g/ha): 0 (Herbicidal rate of 5% or less (almost no effect)) | herbicidal effect on N: redroot pigweed (redroot pigweed [15]; [27]): 5 (Herbicidal rate of 90% or more (almost completely withered)) | herbicidal effect rating, N: redroot pigweed (redroot pigweed [24]): 3 (Herbicidal rate of 40% or more and less than 70%) | herbicidal effect rating, K: Italian ryegrass (Italian ryegrass [16]; 320 g/ha): 0 (Herbicidal rate of 5% or less (almost no effect)) | herbicidal effect rating, L: windgrass (windgrass [17]; 320 g/ha): 0 (Herbicidal rate of 5% or less (almost no effect)) | herbicidal effect rating, C: oval-leafed pondweed (oval-leafed pondweed): 0 (Herbicidal rate of 5% or less (almost no effect)) | herbicidal effect on F: southern crabgrass (southern crabgrass [18]; [27]): 3 (Herbicidal rate of 40% or more and less than 70%) | herbicidal effect on R: persian speedwell (persian speedwell [19]; [27]): 5 (Herbicidal rate of 90% or more (almost completely withered)) | herbicidal effect on D (Chinese sprangletop), rating 0-5 (Chinese sprangletop): 5 (Herbicidal rate of 90% or more (almost completely withered)) | herbicidal effect rating, B: Japanese bulrush (Japanese bulrush): 0 (Herbicidal rate of 5% or less (almost no effect)) | herbicidal effect rating, A: late watergrass (late watergrass): 2 (Herbicidal rate of 20% or more and less than 40%) | herbicidal effect rating, O: lambsquarters (lambsquarters [25]): 3 (Herbicidal rate of 40% or more and less than 70%)
